Conditions: rat, in vivo
Protocol: Female Sprague-Dawley rats (Harlan Sprague-Dawley, Indianapolis, Ind.), weighing 250-300 grams each were given free access to food and water before the experiment. The animals were anesthetized with ketamine (80 mg/kg) and xylazine (10 mg/kg). Brain temperatures were monitored using a rectal thermometer. The animals' body temperature was maintained at 37° C. by using a water-jacketed heating pad. Brain temperature was monitored for 1 hour prior to injury to 6 hours following injury and was recorded at 30-minute intervals.
Young adult female Sprague-Dawley rats received a spinal cord contusion using the Precision Systems and Instrumentation, LLC (Fairfax Station, Va.) pneumatic impactor. Prior to surgery, rats were assigned to different treatment groups based on a randomized block design so that on any given surgery day all treatment groups were included. The rats were anesthetized with ketamine (80 mg/.kg) and xylazine (10 mg/kg) before laminectomy was performed at the 10th thoracic vertebra (T10). The vertebral column was stabilized with angled clamps on the upper thoracic (T8) and lumber (T11) levels and the impactor with a tip diameter of 2 mm was delivered at approximately 150 kdynes onto the exposed, intact dura overlying the dorsal spinal cord. The impactor was immediately removed, the wound irrigated with saline and the muscle and skin openings sutured together.
Two hours following injury, 0.8% magnesium in 3350 formulations was administered by intravenous infusion of 5 mL/kg over a 30-min period. For repeated infusions, an interval of 6 hours was used between infusions and the right jugular vein was cannulated with PE 50 tubing. The cannula was secured through the back of the neck and capped between infusion periods. Animals were re-anesthetized for re-administration of compounds. The contents of the infusion vials were blinded to the investigators performing both the infusions and the analyses.
At various time points after infusion, cerebrospinal fluid and/or blood samples and/or spinal cord tissue with and without the injury site were collected. […]
Serum and CSF samples were analyzed for magnesium concentrations by the Clinical Pathology Department at WIL Research Laboratories, LLC, 1407 George Road, Ashland, Ohio 44805. […] The formation of the chromophore (and consequently a reduction of the xylidyl blue) is proportional to the concentration of Mg^2+, measured by the instrument as a decrease in the xylidyl blue absorbance (600 nm). […]
Tissue and plasma concentrations of PEG-3350 in rat plasma were measured using a validated high performance liquid chromatograpy tandem mass spectrometry (HPLC/MS/MS) method in positive electrospray ionization mode. […] The samples were analyzed with an HPLC/MS/MS assay using a Thermo Hypersil ODS column. […]

Row | Compound | time for PEG plasma level to decrease to baseline level post-infusion [min] | time at which Cmax of PEG plasma level was observed (iv) | time for Magnesium serum level to decrease to baseline level post-infusion [min] | time at which Cmax of Magnesium serum level was observed (iv)
1 | polyethylene glycol [PEG] | 30 to 60 | at the end of the infusion | – | –
2 | [Mg+2] [Magnesium, magnesium] | – | – | 30 to 60 | at the end of the infusion
